We go through 30 compounds from patent US12570666B2, “Furoindazole derivatives” (Bayer Aktiengesellschaft, priority 2019, dated 2026).

pIC50: −log10 of the molar value. Where only a bound is given, the exact number is not on record here.

As a reminder, the pIC50 is the negative decadic logarithm of the IC50, by convention in mol/L.

This assay deals with T1, human GPR84 receptor (Homo sapiens, UniProt Q9NQS5).
T1 construct: frozen aliquots prepared by acCELLerate; host or cells: CHO-K1
T1 sequence (Q9NQS5 whole entry): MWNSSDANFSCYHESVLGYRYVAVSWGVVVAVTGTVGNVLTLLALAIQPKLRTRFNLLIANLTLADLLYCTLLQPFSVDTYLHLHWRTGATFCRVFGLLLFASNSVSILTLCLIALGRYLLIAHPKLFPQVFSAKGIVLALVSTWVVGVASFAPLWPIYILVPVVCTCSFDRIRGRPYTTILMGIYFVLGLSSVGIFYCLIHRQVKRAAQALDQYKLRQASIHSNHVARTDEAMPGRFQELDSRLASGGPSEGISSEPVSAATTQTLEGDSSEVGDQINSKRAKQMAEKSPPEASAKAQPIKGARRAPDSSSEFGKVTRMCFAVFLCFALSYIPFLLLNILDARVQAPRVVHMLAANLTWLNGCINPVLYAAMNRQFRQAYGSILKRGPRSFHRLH
Nature of the assay: cAMP HTRF assay for identification of cellular GPR84 antagonists. The assay is classed as cell-based. The conditions noted are these: CHO-K1 cells stably expressing human GPR84; Forskolin + agonist 6-OAU (EC80); average or median values. The gist of the method: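 IC50 came from 4-parameter fits over 20 μM–0.07 nM (11 points, duplicate), normalized between DMSO (0%) and agonist-free (100% inhibition) wells. Readout: cAMP-d2/Eu-cryptate HTRF in hGPR84 CHO-K1 cells given forskolin plus agonist, compound preincubated 30 min at room temperature.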
In general terms: TR-FRET usually uses a lanthanide donor and a delayed reading to cut background.
On to `C[C@@H]1Cc2oc(C(=O)NCc3cn(C)cn3)c(C(F)(F)F)c2-c2nn(C[C@H]3COCCO3)cc21` (single isomer, unassigned) [Example 314, (4R or 4S)-2-{[(2S)-1,4-dioxan-2-yl]methyl}-4-methyl-N-[(1-methyl-1H-imidazol-4-yl)methyl]-8-(trifluoromethyl)-4,5-dihydro-2H-furo[2,3-g]indazole-7-carboxamide], for which the pIC50 is 7.40.

With `Cc1cccc(CNC(=O)c2oc3c(c2C(F)(F)F)-c2nn(C[C@H]4COCCO4)cc2[C@H](C)C3)n1` (single isomer, unassigned) [Example 315, (4R or 4S)-2-{[(2S)-1,4-dioxan-2-yl]methyl}-4-methyl-N-[(6-methylpyridin-2-yl)methyl]-8-(trifluoromethyl)-4,5-dihydro-2H-furo[2,3-g]indazole-7-carboxamide], the pIC50 is 6.58.

For `C[C@@H]1Cc2oc(C(=O)NCc3cncs3)c(C(F)(F)F)c2-c2nn(C[C@H]3COCCO3)cc21` (single isomer, unassigned) [Example 316, (4R or 4S)-2-{[(2S)-1,4-dioxan-2-yl]methyl}-4-methyl-N-[(1,3-thiazol-5-yl)methyl]-8-(trifluoromethyl)-4,5-dihydro-2H-furo[2,3-g]indazole-7-carboxamide], the negative logarithm of the IC50 (pIC50) is 6.43. With `C[C@@H]1Cc2oc(C(=O)NCc3cnc(C4CC4)cn3)c(C(F)(F)F)c2-c2nn(C[C@H]3COCCO3)cc21` (single isomer, unassigned) [Example 322, (4R or 4S)—N-[(5-cyclopropylpyrazin-2-yl)methyl]-2-{[(2S)-1,4-dioxan-2-yl]methyl}-4-methyl-8-(trifluoromethyl)-4,5-dihydro-2H-furo[2,3-g]indazole-7-carboxamide], the pIC50 was 8.70.

For the compound `C[C@@H]1Cc2oc(C(=O)NCc3cnc(Cl)cn3)c(C(F)(F)F)c2-c2nn(C[C@H]3COCCO3)cc21` (single isomer, unassigned) [Example 323, (4R or 4S)—N-[(5-chloropyrazin-2-yl)methyl]-2-{[(2S)-1,4-dioxan-2-yl]methyl}-4-methyl-8-(trifluoromethyl)-4,5-dihydro-2H-furo[2,3-g]indazole-7-carboxamide], the pIC50 was 8.52. Take `O=C(NC[C@@H]1CCCO1)c1cc2c(o1)CCc1cn(Cc3ccccn3)nc1-2` [Example 1, 2-(pyridin-2-ylmethyl)-N-[(2S)-tetrahydrofuran-2-ylmethyl]-4,5-dihydro-2H-furo[2,3-g]indazole-7-carboxamide]: the pIC50 is 6.00. Next, `Cc1ccc(CNC(=O)c2oc3c(c2C)-c2nn(Cc4ccccn4)cc2CC3)cc1` [Example 2, 8-methyl-N-[(4-methylphenyl)methyl]-2-[(pyridin-2-yl)methyl]-4,5-dihydro-2H-furo[2,3-g]indazole-7-carboxamide]: 7.11; `Cc1c(C(=O)NC[C@H]2CCCO2)oc2c1-c1nn(Cc3ccccn3)cc1CC2` [Example 3-1, 8-methyl-2-(pyridin-2-ylmethyl)-N-[(2R)-tetrahydrofuran-2-ylmethyl]-4,5-dihydro-2H-furo[2,3-g]indazole-7-carboxamide]: 5.94; `Cc1c(C(=O)NCCN2CCN(C)CC2)oc2c1-c1nn(Cc3ccccn3)cc1CC2` [Example 4, 8-methyl-N-[2-(4-methylpiperazin-1-yl)ethyl]-2-(pyridin-2-ylmethyl)-4,5-dihydro-2H-furo[2,3-g]indazole-7-carboxamide]: 5.79. For the compound `Cc1c(C(=O)NCc2ncon2)oc2c1-c1nn(Cc3ccccn3)cc1CC2` [Example 5], the pIC50 is 5.85.

Turning to `Cc1c(C(=O)NCc2ccon2)oc2c1-c1nn(Cc3ccccn3)cc1CC2` [Example 6, 8-methyl-N-(1,2-oxazol-3-ylmethyl)-2-(pyridin-2-ylmethyl)-4,5-dihydro-2H-furo[2,3-g]indazole-7-carboxamide], the pIC50 was 6.10. Turning to `Cc1c(C(=O)NCc2cc(C3CC3)on2)oc2c1-c1nn(Cc3ccccn3)cc1CC2` [Example 7, N-[(5-cyclopropyl-1,2-oxazol-3-yl)methyl]-8-methyl-2-(pyridin-2-ylmethyl)-4,5-dihydro-2H-furo[2,3-g]indazole-7-carboxamide], the pIC50 is 6.82. The figure for `Cc1cc(CNC(=O)c2oc3c(c2C)-c2nn(Cc4ccccn4)cc2CC3)no1` [Example 8, 8-methyl-N-[(5-methyl-1,2-oxazol-3-yl)methyl]-2-(pyridin-2-ylmethyl)-4,5-dihydro-2H-furo[2,3-g]indazole-7-carboxamide] is 6.68. As to `Cc1c(C(=O)NCC(C)(C)O)oc2c1-c1nn(Cc3ccccn3)cc1CC2` [Example 10, N-(2-hydroxy-2-methylpropyl)-8-methyl-2-(pyridin-2-ylmethyl)-4,5-dihydro-2H-furo[2,3-g]indazole-7-carboxamide], the pIC50 is below 4.70. Consider `Cc1c(C(=O)NCc2cc(CN3CCOCC3)on2)oc2c1-c1nn(Cc3ccccn3)cc1CC2` [Example 11, 8-methyl-N-{[5-(morpholin-4-ylmethyl)-1,2-oxazol-3-yl]methyl}-2-(pyridin-2-ylmethyl)-4,5-dihydro-2H-furo[2,3-g]indazole-7-carboxamide], for which the negative logarithm of the IC50 (pIC50) was below 4.70.

Regarding `Cc1c(C(=O)NCCN2CCN(c3ccc(C(F)(F)F)cn3)CC2)oc2c1-c1nn(Cc3ccccn3)cc1CC2` [Example 12, 8-methyl-2-(pyridin-2-ylmethyl)-N-(2-{4-[5-(trifluoromethyl)pyridin-2-yl]piperazin-1-yl}ethyl)-4,5-dihydro-2H-furo[2,3-g]indazole-7-carboxamide], the pIC50 was 5.56.

In the case of `Cc1c(C(=O)NCCN2CCN(c3cccc(C(F)(F)F)c3)CC2)oc2c1-c1nn(Cc3ccccn3)cc1CC2` [Example 13, 8-methyl-2-(pyridin-2-ylmethyl)-N-(2-{4-[3-(trifluoromethyl)phenyl]piperazin-1yl}ethyl)-4,5-dihydro-2H-furo[2,3-g]indazole-7-carboxamide], the negative logarithm of the IC50 (pIC50) is 5.78. Turning to `COc1cccc(-c2cc(CNC(=O)c3oc4c(c3C)-c3nn(Cc5ccccn5)cc3CC4)no2)c1` [Example 14, N-{[5-(3-methoxyphenyl)-1,2-oxazol-3-yl]methyl}-8-methyl-2-(pyridin-2-ylmethyl)-4,5-dihydro-2H-furo[2,3-g]indazole-7-carboxamide], the pIC50 was 5.32.

For `Cc1nonc1CNC(=O)c1oc2c(c1C)-c1nn(Cc3ccccn3)cc1CC2` [Example 15, 8-methyl-N-[(4-methyl-1,2,5-oxadiazol-3-yl)methyl]-2-(pyridin-2-ylmethyl)-4,5-dihydro-2H-furo[2,3-g]indazole-7-carboxamide], the pIC50 was 5.70. For the compound `Cc1c(C(=O)NCc2cnoc2C2CC2)oc2c1-c1nn(Cc3ccccn3)cc1CC2` [Example 16, N-[(5-cyclopropyl-1,2-oxazol-4-yl)methyl]-8-methyl-2-(pyridin-2-ylmethyl)-4,5-dihydro-2H-furo[2,3-g]indazole-7-carboxamide], the pIC50 was 4.95. In the case of `Cc1c(C(=O)NCc2cc(-c3ccccc3Cl)on2)oc2c1-c1nn(Cc3ccccn3)cc1CC2` [Example 17, N-{[5-(2-chlorophenyl)-1,2-oxazol-3-yl]methyl}-8-methyl-2-(pyridin-2-ylmethyl)-4,5-dihydro-2H-furo[2,3-g]indazole-7-carboxamide], the pIC50 is 5.00. Regarding `Cc1c(C(=O)NCc2cc(C(C)C)on2)oc2c1-c1nn(Cc3ccccn3)cc1CC2` [Example 18, N-[(5-isopropyl-1,2-oxazol-3-yl)methyl]-8-methyl-2-(pyridin-2-ylmethyl)-4,5-dihydro-2H-furo[2,3-g]indazole-7-carboxamide], the pIC50 is 7.01.

For `Cc1c(C(=O)NC[C@@H]2COCCO2)oc2c1-c1nn(Cc3ccccn3)cc1CC2` [Example 19-1, N-[(2R)-1,4-dioxan-2-ylmethyl]-8-methyl-2-(pyridin-2-ylmethyl)-4,5-dihydro-2H-furo[2,3-g]indazole-7-carboxamide], the pIC50 is 7.19. `Cc1c(C(=O)NC[C@H]2COCCO2)oc2c1-c1nn(Cc3ccccn3)cc1CC2` [Example 19-2, N-{[(2S)-1,4-dioxan-2-yl]methyl}-8-methyl-2-[(pyridin-2-yl)methyl]-4,5-dihydro-2H-furo[2,3-g]indazole-7-carboxamide]: the pIC50 is 6.08. Take `Cc1c(C(=O)NCc2nnc[nH]2)oc2c1-c1nn(Cc3ccccn3)cc1CC2` [Example 20, 8-methyl-2-(pyridin-2-ylmethyl)-N-(4H-1,2,4-triazol-3-ylmethyl)-4,5-dihydro-2H-furo[2,3-g]indazole-7-carboxamide]: the pIC50 is 5.29. On to `Cc1c(C(=O)NCc2ccccn2)oc2c1-c1nn(Cc3ccccn3)cc1CC2` [Example 21, 8-methyl-N,2-bis(pyridin-2-ylmethyl)-4,5-dihydro-2H-furo[2,3-g]indazole-7-carboxamide], for which the negative-log IC50 (pIC50) was 6.52. As to `Cc1c(C(=O)NCc2cc[nH]n2)oc2c1-c1nn(Cc3ccccn3)cc1CC2` [Example 22, 8-methyl-N-(1H-pyrazol-3-ylmethyl)-2-(pyridin-2-ylmethyl)-4,5-dihydro-2H-furo[2,3-g]indazole-7-carboxamide], the pIC50 was 6.47. Next, `Cc1c(C(=O)NCc2nccs2)oc2c1-c1nn(Cc3ccccn3)cc1CC2` [Example 23, 8-methyl-2-(pyridin-2ylmethyl)-N-(1,3-thiazol-2-ylmethyl)-4,5-dihydro-2H-furo[2,3-g]indazole-7-carboxamide]: 6.80; `Cc1c(C(=O)NCc2cnoc2)oc2c1-c1nn(Cc3ccccn3)cc1CC2` [Example 24, 8-methyl-N-(1,2-oxazol-4-ylmethyl)-2-(pyridin-2-ylmethyl)-4,5-dihydro-2H-furo[2,3-g]indazole-7-carboxamide]: 5.18; `Cc1c(C(=O)NCc2cc(C(F)(F)F)on2)oc2c1-c1nn(Cc3ccccn3)cc1CC2` [Example 25, 8-methyl-2-(pyridin-2-ylmethyl)-N-{[5-(trifluoromethyl)-1,2-oxazol-3-yl]methyl}-4,5-dihydro-2H-furo[2,3-g]indazole-7-carboxamide]: 6.80.
